Laboratory results as given in ChEMBL document CHEMBL3098004, “Asymmetric synthesis and receptor activity of chiral simplified resiniferatoxin (sRTX) analogues as transient receptor potential vanilloid 1 (TRPV1) ligands” (Bioorg Med Chem Lett, 2014).

Columns and labels:
Type in all cases: cell-based
[1] = target: T1, Transient receptor potential cation channel subfamily V member 1 (Homo sapiens, UniProt Q8NER1); assay: Antagonist activity at human TRPV1 expressed in CHO cells assessed as inhibition of RTX-induced 45Ca2+ uptake after 20 mins by liquid scintillation counting analysis
[2] = target: T1, Transient receptor potential cation channel subfamily V member 1; assay: Displacement of [3H]RTX from human TRPV1 expressed in CHO cells after 60 mins by liquid scintillation counting analysis
[3] = target: T1, Transient receptor potential cation channel subfamily V member 1; assay: Agonist activity at human TRPV1 expressed in CHO cells assessed as 45Ca2+ uptake after 20 mins by liquid scintillation counting analysis

T1 sequence (Q8NER1 whole entry): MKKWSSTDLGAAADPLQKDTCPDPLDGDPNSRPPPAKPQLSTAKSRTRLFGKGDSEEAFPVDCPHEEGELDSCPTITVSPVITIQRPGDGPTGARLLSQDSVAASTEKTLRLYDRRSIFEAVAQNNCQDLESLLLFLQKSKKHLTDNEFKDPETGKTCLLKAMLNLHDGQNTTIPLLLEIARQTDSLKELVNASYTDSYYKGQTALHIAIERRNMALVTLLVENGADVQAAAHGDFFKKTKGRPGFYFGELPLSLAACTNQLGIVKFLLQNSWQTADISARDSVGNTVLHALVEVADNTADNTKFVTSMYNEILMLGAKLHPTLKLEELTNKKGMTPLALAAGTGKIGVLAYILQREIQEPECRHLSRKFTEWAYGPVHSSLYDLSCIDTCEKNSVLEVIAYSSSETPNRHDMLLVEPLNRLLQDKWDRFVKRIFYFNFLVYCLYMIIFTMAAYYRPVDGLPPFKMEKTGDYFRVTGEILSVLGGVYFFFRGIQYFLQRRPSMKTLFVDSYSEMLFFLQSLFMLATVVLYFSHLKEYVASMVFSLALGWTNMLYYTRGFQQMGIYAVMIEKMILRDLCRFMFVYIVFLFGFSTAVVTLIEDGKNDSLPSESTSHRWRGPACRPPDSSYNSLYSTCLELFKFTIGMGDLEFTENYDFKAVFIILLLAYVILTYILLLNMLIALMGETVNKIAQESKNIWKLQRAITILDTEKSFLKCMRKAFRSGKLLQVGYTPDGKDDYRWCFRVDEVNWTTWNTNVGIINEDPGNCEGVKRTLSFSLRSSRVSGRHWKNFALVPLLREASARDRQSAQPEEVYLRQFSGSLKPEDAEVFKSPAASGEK

Structure (SMILES) | Ki ([1]; cho) | Ki [2] [nM] | EC50 ([3]; read-out: EC50) [nM] | Ki ([1]; read-out: Ki) [nM] | EC50 ([3]; cho)
COc1cc(CNC(=S)NC[C@H](COC(=O)C(C)(C)C)Cc2ccc(C(C)(C)C)cc2)ccc1O | Not Active | 3.06 | 0.99 |  | 
COc1cc(CNC(=S)NC[C@@H](COC(=O)C(C)(C)C)Cc2ccc(C(C)(C)C)cc2)ccc1O | Not Active | 6.58 | 9.55 |  | 
CC(C)(C)C(=O)OC[C@@H](CNC(=S)NCc1ccc(NS(C)(=O)=O)c(F)c1)Cc1ccc(C(C)(C)C)cc1 |  | 17.2 |  | 94 | Not Active
CC(C)(C)C(=O)OC[C@H](CNC(=S)NCc1ccc(NS(C)(=O)=O)c(F)c1)Cc1ccc(C(C)(C)C)cc1 |  | 63 |  | 161 | Not Active
CC(C)(C)C(=O)OCC(CNC(=S)NCc1ccc(NS(C)(=O)=O)c(F)c1)Cc1ccc(C(C)(C)C)cc1 (racemic) |  | 23 |  | 122 | Not Active
COc1cc(CNC(=S)NCC(COC(=O)C(C)(C)C)Cc2ccc(C(C)(C)C)cc2)ccc1O (racemic) | Not Active | 6.1 | 1.34 |  | 
C=C(C)[C@]12C[C@@H](C)[C@@]34O[C@](Cc5ccccc5)(O[C@@H]1[C@@H]3C=C(COC(=O)Cc1cc(I)c(O)c(OC)c1)C[C@]1(O)C(=O)C(C)=C[C@@H]41)O2 [IODORESINIFERATOXIN] |  |  |  |  | Not Active
C=C(C)[C@]12C[C@@H](C)[C@@]34O[C@](Cc5ccccc5)(O[C@@H]1[C@@H]3C=C(COC(=O)Cc1ccc(O)c(OC)c1)C[C@]1(O)C(=O)C(C)=C[C@@H]41)O2 [RESINIFERATOXIN] | Not Active |  |  |  | 
